For one series, the target named is cdk4/D (Homo sapiens, UniProt P11802). The series is described as follows: Cyclin-Dependent Kinase 4 (cdk4) Assay. It counts as biochemical. The following applies: Table 1; read-out: cdk4/D IC50.
The target of a further series is Cdk5/p25 (Homo sapiens, UniProt Q00535). The experiment in a line: Cyclin-Dependent Kinase 5 (cdk5) Assay. It counts as biochemical. The following applies: Table 1. In short, it runs like this: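 Radiometric filter-plate assay: components premixed 5 min, reaction started with histone substrate and [^32P]ATP, 45 min at 30° C.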
A further series deals with cdk2/cyclinE (Homo sapiens, UniProt P24941). The experiment in a line: Cyclin-Dependent Kinase Assay cdk2/cyclinE. The note with it: cdk2/E IC50, Table 1.
The target of the next series is cdk2/cyclinA (Homo sapiens, UniProt P24941). The experiment in a line: Cyclin-Dependent Kinase Assay cdk2/cyclinA. The following applies: cdk2/A IC50, Table 1.
Another series deals with cdc2/cyclinB (Homo sapiens, UniProt P06493). The series is described as follows: Cyclin-Dependent Kinase Assay cdc2/cyclinB.
cdc2/cyclinB, sequence (P06493 whole entry): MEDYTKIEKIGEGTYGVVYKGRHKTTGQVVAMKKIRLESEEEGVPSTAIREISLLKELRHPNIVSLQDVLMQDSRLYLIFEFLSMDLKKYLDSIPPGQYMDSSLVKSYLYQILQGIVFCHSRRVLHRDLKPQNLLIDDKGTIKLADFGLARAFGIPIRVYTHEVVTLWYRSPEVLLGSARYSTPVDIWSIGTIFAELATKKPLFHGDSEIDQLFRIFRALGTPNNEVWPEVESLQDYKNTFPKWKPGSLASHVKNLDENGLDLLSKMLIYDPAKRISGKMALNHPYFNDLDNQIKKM
cdc2/cyclinB, sequence (P14635 whole entry, further chain): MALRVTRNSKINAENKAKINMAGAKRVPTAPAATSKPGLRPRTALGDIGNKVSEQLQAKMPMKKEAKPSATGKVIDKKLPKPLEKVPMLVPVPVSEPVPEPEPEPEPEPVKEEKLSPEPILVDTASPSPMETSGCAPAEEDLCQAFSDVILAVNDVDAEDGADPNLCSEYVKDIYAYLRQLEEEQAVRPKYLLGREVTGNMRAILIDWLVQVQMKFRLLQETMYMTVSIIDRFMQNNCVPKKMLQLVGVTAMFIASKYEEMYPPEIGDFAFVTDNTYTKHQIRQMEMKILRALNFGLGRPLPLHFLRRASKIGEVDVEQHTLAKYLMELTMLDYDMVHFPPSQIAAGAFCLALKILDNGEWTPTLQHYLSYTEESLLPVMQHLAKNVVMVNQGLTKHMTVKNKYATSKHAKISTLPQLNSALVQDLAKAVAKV

cdk4/D, sequence (P11802 whole entry): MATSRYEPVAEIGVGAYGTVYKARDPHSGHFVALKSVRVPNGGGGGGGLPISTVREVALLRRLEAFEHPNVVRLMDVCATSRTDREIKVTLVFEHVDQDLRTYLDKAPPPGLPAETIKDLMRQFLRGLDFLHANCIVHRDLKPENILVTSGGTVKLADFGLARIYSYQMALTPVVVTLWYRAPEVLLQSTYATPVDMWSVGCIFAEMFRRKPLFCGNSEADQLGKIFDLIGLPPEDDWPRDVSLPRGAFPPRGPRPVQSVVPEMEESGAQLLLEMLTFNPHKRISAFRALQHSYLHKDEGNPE
cdk4/D, sequence (P24385 whole entry, further chain): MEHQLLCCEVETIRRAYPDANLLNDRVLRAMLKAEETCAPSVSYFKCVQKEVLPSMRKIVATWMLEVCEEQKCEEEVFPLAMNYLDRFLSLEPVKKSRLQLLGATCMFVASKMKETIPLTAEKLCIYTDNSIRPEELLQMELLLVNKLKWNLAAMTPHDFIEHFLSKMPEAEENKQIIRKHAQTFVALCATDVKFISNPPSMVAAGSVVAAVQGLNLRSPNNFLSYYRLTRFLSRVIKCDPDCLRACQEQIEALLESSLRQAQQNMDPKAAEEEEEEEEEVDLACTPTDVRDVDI
Description for cdk2/cyclinA: (§1) Cyclin-Dependent Kinase Assays (cdk2/cyclinE, cdk2/cyclinA, cdc2/cyclinB)
(§2) All components except the ATP were added to the wells, and the plate was placed on a plate mixer for 2 minutes. The reaction was begun by addition of [^32P]ATP, and the plate was incubated at 25° C. for 15 minutes. The reaction was terminated by addition of 0.1 mL of 20% TCA. The plate was kept at 4° C. for at least 1 hour to allow the substrate to precipitate. The wells were then washed five times with 0.2 mL of 10% TCA and ^32p incorporation determined with a beta plate counter (Wallac Inc., Gaithersburg, Md.).
Description for cdk2/cyclinE: as §1, §2

`O=c1ccc2cnc(Nc3ccc(-n4cccn4)cc3)nc2n1C1CCCCC1` [Example 162, 8-Cyclohexyl-2-(4-pyrazol-1-yl-phenylamino)-8H-pyrido[2,3-d]pyrimidin-7-one]: the melting point lay in the range of 241 to 242 °C. The IC50 on cdk4/D was 89 nM. Besides, on Cdk5/p25, the IC50 was 42.5 nM. The IC50 against cdk2/cyclinE was found to be 87 nM. Besides, on cdk2/cyclinA, the IC50 came to 35.7 nM. The molecule also had an IC50 at cdc2/cyclinB of 267 nM.

Regarding `O=c1ccc2cnc(Nc3ccc(F)cc3)nc2n1C1CC2CCC1C2` (stereo not drawn) [Example 212, 8-Bicyclo[2.2.1]hept-2-yl-2-(4-fluoro-phenylamino)-8H-pyrido[2,3-d]pyrimidin-7-one], the melting point was 219 to 220 °C. Moreover, the IC50 on cdk4/D came to 29.7 nM. At Cdk5/p25, this molecule had an IC50 of 10.1 nM. Moreover, the IC50 against cdk2/cyclinE is 14 nM. At cdk2/cyclinA, the IC50 is 16 nM. On cdc2/cyclinB, this molecule registered an IC50 of 189 nM.

The molecule `O=c1ccc2cnc(Nc3ccc(N4CCC(O)CC4)cc3)nc2n1C1CCCCC1` [Example 215, 8-Cyclohexyl-2-[4-(4-hydroxy-piperidin-1-yl)-phenylamino]-8H-pyrido[2,3-d]pyrimidin-7-one] registered a melting point of 224 to 225 °C. The IC50 at cdk4/D is 7.5 nM. In addition, the IC50 against Cdk5/p25 is 24.4 nM. The same molecule gave an IC50 against cdk2/cyclinE of 24 nM. Also, on cdk2/cyclinA, the IC50 amounted to 8.4 nM. At cdc2/cyclinB, this molecule returned an IC50 of 112 nM.

In turn, `O=c1ccc2cnc(Nc3ccc(OC(F)(F)C(F)F)cc3)nc2n1C1CC2CCC1C2` (stereo not drawn) [Example 219, 8-Bicyclo[2.2.1]hept-2-yl-2-[4-(1,1,2,2-tetrafluoro-ethoxy)-phenylamino]-8H-pyrido[2,3-d]pyrimidin-7-one] returned a melting point of 214 to 215 °C. On cdk4/D, the IC50 came out at 780 nM. In addition, the IC50 on Cdk5/p25 is 568 nM. The molecule further displayed an IC50 on cdk2/cyclinE of 31900 nM. This molecule returned an IC50 at cdk2/cyclinA of 6610 nM. This molecule displayed an IC50 on cdc2/cyclinB of 7070 nM.

As for `O=c1ccc2cnc(Nc3ccc(F)c(F)c3)nc2n1C1CC2CCC1C2` (stereo not drawn) [Example 220, 8-Bicyclo[2.2.1]hept-2-yl-2-(3,4-difluoro-phenylamino)-8H-pyrido[2,3-d]pyrimidin-7-one], the melting point was 227 to 228 °C. The IC50 at cdk4/D came to 115 nM. On Cdk5/p25, this molecule registered an IC50 of 66.2 nM. The IC50 at cdk2/cyclinE amounted to 50 nM. For the same molecule, the IC50 at cdk2/cyclinA was 57.8 nM. At cdc2/cyclinB, this molecule showed an IC50 of 1660 nM.

For the molecule `O=c1ccc2cnc(Nc3ccc(N4CCC(O)CC4)cc3)nc2n1C1CC2CCC1C2` (stereo not drawn) [Example 227, 8-Bicyclo[2.2.1]hept-2-yl-2-[4-(4-hydroxy-piperidin-1-yl)-phenylamino]-8H-pyrido[2,3-d]pyrimidin-7-one], the melting point is 206 °C. Also, at cdk4/D, the IC50 is 2.8 nM. The molecule also yielded an IC50 on Cdk5/p25 of 36 nM. Also, the IC50 against cdk2/cyclinE was found to be 56 nM. Moreover, the IC50 against cdk2/cyclinA was determined as 20.7 nM. The IC50 at cdc2/cyclinB came out at 82.5 nM.

As to `O=c1ccc2cnc(Nc3ccc(N4CCC(CCO)CC4)cc3)nc2n1C1CC2CCC1C2` (stereo not drawn) [Example 228, 8-Bicyclo[2.2.1]hept-2-yl-2-{4-[4-(2-hydroxy-ethyl)-piperidin-1-yl]-phenylamino}-8H-pyrido[2,3-d]pyrimidin-7-one], the melting point is 202 °C. Further, at cdk4/D, the IC50 came to 5.5 nM. In addition, the IC50 on Cdk5/p25 amounted to 38.8 nM. For the same molecule, the IC50 at cdk2/cyclinE was found to be 185 nM. This molecule showed an IC50 at cdk2/cyclinA of 98.5 nM. Also, the IC50 at cdc2/cyclinB came out at 380 nM.

`O=c1ccc2cnc(Nc3ccc(N4CCCC(CO)C4)cc3)nc2n1C1CC2CCC1C2` (stereo not drawn) [Example 231, 8-Bicyclo[2.2.1]hept-2-yl-2-[4-(3-hydroxymethyl-piperidin-1-yl)-phenylamino]-8H-pyrido[2,3-d]pyrimidin-7-one] had a melting point of 152 °C. At cdk4/D, the IC50 was 2.1 nM. Also, at Cdk5/p25, the IC50 was 167 nM. For the same molecule, the IC50 against cdk2/cyclinE came to 85 nM. Besides, at cdk2/cyclinA, the IC50 stood at 63 nM. Also, at cdc2/cyclinB, the IC50 came to 220 nM.

Turning to `CN1CCN(c2ccc(Nc3ncc4ccc(=O)n(C5CC6CCC5C6)c4n3)cc2)CC1` (stereo not drawn) [Example 252], the melting point fell in the range of 233 to 234 °C. Besides, the IC50 on cdk4/D was determined as 6.1 nM. Moreover, the IC50 against Cdk5/p25 stood at 23.7 nM. The same molecule returned an IC50 at cdk2/cyclinE of 102 nM. Moreover, the IC50 on cdk2/cyclinA was 42.5 nM. Also, the IC50 on cdc2/cyclinB was 160 nM.

Molecule `O=c1ccc2cnc(Nc3ccc(N4CCCCC4CO)cc3)nc2n1C1CC2CCC1C2` (stereo not drawn) [Example 253] gave a melting point of 160 to 161 °C. Also, the IC50 on cdk4/D is 11.5 nM. Further, on Cdk5/p25, the IC50 was 300 nM. Also, the IC50 against cdk2/cyclinE was determined as 149 nM. The same molecule registered an IC50 on cdk2/cyclinA of 110 nM. In addition, on cdc2/cyclinB, the IC50 was 670 nM.

These data come from patent publication US20040224958A1, “Pyridopyrimidinone derivatives for treatment of neurodegenerative disease” (priority 2000, published 2004).
